Laboratory results published in patent publication US12226382B2, “Methods for treating microglial dysfunction” (Washington University, priority 2017, dated 2025).

Legend:
[1] = tested on: Trem-2 deficient macrophages; experiment: Supplementation of Trem2-deficient macrophages with creatine analogs; assay type: cell-based, mouse; settings: supplemented media
Trem2−/− BMDMs [2] = experiment: Autophagic flux in BMDM with lysosomal inhibitor (LC3 immunoblot); assay type: cell-based, mouse; settings: bafilomycin for 5 hours prior to harvest
Protocol: (§1) To prepare bone marrow-derived macrophages, femurs and tibias were removed and flushed with PBS. Cells were counted and plated at 2.5×10^6 cells/100 mm petri dish in RPMI supplemented with Glutamax, penicillin/streptomycin, non-essential amino acids, pyruvate, and 10% heat inactivated fetal bovine serum (complete RPMI) and 10% L-cell conditioned medium (LCCM). Cells were cultured for 4-5 days before use. Microglia were prepared as previously described (Wang et al., 2015). Briefly, brains were dissociated by using a Neural Tissue Dissociation Kit (T) (Miltenyi Biotech Cat. Number 130-093-231). Cell suspensions were labeled with anti-mouse CD45 magnetic beads and isolated on LS columns (Miltenyi Biotic). Cells were plated onto poly-L-lysine coated polystyrene plates in complete RPMI supplemented with 20% LCCM and 10 ng/ml human TGF-β. Media was changed on day 3 post plating and cells were used 5-7 days post plating. ATP concentrations were determined with an ATP Determination Kit (Invitrogen).
(§2) BMDM or microglia were lysed in RIPA buffer (50 mM Tris, 150 mM NaCl, 1% SDS, and 1% Triton X100) containing PMSF, leupeptin, activated sodium orthovanidate, apoprotinin, and phosphatase inhibitor cocktail 3 (Sigma Aldrich Cat. Number P0044). Lysates were flash frozen on dry ice and stored at −80° C. until use. Lysates were thawed and 4× LDS running buffer and 10% β-mercaptoethanol were added. […]

Trem2-deficient BMDMs = experiment: Extracellular acidification rate (ECAR), XF96 Extracellular Flux Analyzer; assay type: cell-based, mouse; settings: overnight 0.5% LCCM, 10 mM cyclocreatine
Protocol: as §1, with “(Invitrogen). For real-time analysis of extracellular acidification rates (ECAR) macrophages were analyzed using an XF96 Extracellular Flux Analyzer (Agilent Technologies). Cells were incubated overnight in complete RPMI in the indicated concentration of LCCM with or without cyclocreatine (10 mM). […]” for “(Invitrogen).”

Trem2−/− BMDMs [3] = experiment: Immunoblots for autophagy (LC3, p62) and mTOR signaling in BMDM in limiting CSF1 with rescuing agent; assay type: cell-based, mouse; settings: Trem2-deficient BMDMs, overnight 0.5% LCCM, 5 mM cyclocreatine
Protocol: as §1, §2

Trem2−/− BMDM = experiment: Viability of BMDM in 0.5% LCCM; assay type: cell-based, mouse; settings: Trem2-deficient BMDMs, 40 hours in 0.5% LCCM
Trem2−/− 5XFAD mice = experiment: Dietary cyclocreatine in Trem2−/− 5XFAD mice: TEM and confocal microscopy of brain; assay type: in vivo, mouse
Description: (§3) The generation of Trem2^−/− and Trem2^−/− SXFAD mice has been described previously (Oakley et al., 2006; Turnbull et al., 2006; Wang et al., 2015). All mice were on a C57BL/6 background. Age and sex matched mice were used for all experiments; experimental cohorts of mice were cohoused from birth to control for the microbiota. For in vivo cyclocreatine treatment 10-week old mice were put on cyclocreatine-containing water, treatment was continued until mice reached 8 months of age (Santa Cruz SC-217964 S). Desired intake of cyclocreatine was approximately 0.28 mg/g of body weight/day, which is approximately the same as the standard creatine dose used in humans of 285 mg/kg of body weight/day (Kurosawa et al., 2012). Cyclocreatine was administered in drinking water at a final concentration of 2.33 mg/ml. The Institutional Animal Care and Use Committee at Washington University in St. Louis approved all protocols used in this study.
For quantitation of multivesicular/multilamellar structures, 30 cells that were cross-sectioned through the nucleus (indicating cross-section through the middle of cell) were randomly chosen, and images of each cell were taken at 6,000× and 20,000× magnification. The cross-sectional area of each of the multivesicular structures were determined using Image J 1.38 g (National Institutes of Health, USA, customized for AMT images). Data is expressed as the 1) total number of a multivesicular/multilammelar structures per cross-sectional area of cytosol and 2) the total cross-sectional area of multivesicular/multilamellar structures per area of cytosol.
Confocal microscopy analysis was performed as previously described (Wang et al., 2015). Briefly, mice were anesthetized with ketamine/xylazine and perfused with ice-cold PBS containing 1 U/ml of heparin. Brains were fixed in 4% PFA overnight at 4° C. rinsed in PBS and incubated overnight at 4° C. in 30% sucrose before freezing in a 2:1 mixture of 30% sucrose and optimal cutting temperature compound. Serial 40 μm coronal sections were cut on a cryo-sliding microtome. Floating sections from 1.1 mm Bregma to 0.8 mm Bregma for cortical imaging or slides with fixed human sections were stained with lba-1 (Waco Chemicals Cat. Number 019-19741) overnight at 4° C. followed by staining with anti-rabbit IgG DyLight 549 (Vector Laboratories Cat. Number DI-1549) and methoxy-X04 (Tocris Cat. Number 4920) for 1 hour at RT. Finally, sections were stained for with anti-LC3 Alexa 488±anti-cleaved caspase 3 (Cell Signaling Technologies Cat. Number 13082 and 9602). Images were collected using a Nikon Al Rsi+ confocal microscope. Images were then processed with Imaris 7.7 (Bitplane).
Positions of microglia and positions and volumes of plaques within z-stacks were derived from analysis in Imaris, and microglia-plaque association was determined using automated scripts in Matlab. Briefly, each plaque in the z-stack was modeled as an idealized sphere with the same volume and center of mass. Microglia density within 15 μm of the plaque surface was determined by isolating the voxels of the image that fall within 15 μm of the edge of the idealized plaque. The number of microglia contained in these voxels was divided by the total volume of those voxels to obtain density for a single plaque. Densities of all plaques in a z-stack were averaged together, and the resulting values were averaged together for all z-stacks corresponding to a single animal.
To measure total plaque area, brain sections were stained with methoxy X04. Images were collected using a Nikon Eclipse 80i microscope. For quantitative analysis, images were converted to 8-bit greyscale and stitched using the “Stitching” plugin in ImageJ. Cortex (˜1.1 mm Bregma to 0.8 mm Bregma) and hippocampus (˜−1.7 Bregma to −2.4 Bregma) were determined by manual selection. […]

5XFAD mice = experiment: Dietary cyclocreatine in 5XFAD mice: confocal microscopy of brain; assay type: in vivo, mouse; settings: cyclocreatine-treated 5XFAD mice vs untreated Trem2−/− 5XFAD mice
Description: as §3
Confocal microscopy analysis was performed as previously described (Wang et al., 2015). Briefly, mice were anesthetized with ketamine/xylazine and perfused with ice-cold PBS containing 1 U/ml of heparin. Brains were fixed in 4% PFA overnight at 4° C. rinsed in PBS and incubated overnight at 4° C. in 30% sucrose before freezing in a 2:1 mixture of 30% sucrose and optimal cutting temperature compound. […]

[4] = tested on: microglia from Trem2−/− 5XFAD mice; experiment: Immunoblots of microglia sorted ex vivo from cyclocreatine-treated mice; assay type: in vivo, mouse; settings: microglia isolated ex vivo, cyclocreatine vs untreated
Description: as §3
Microglia were isolated from the indicated animals as previously described (Wang et al., 2015). CD45^+, CD11 b^+, F4/80^+ (Biolegend Cat. Number 103134, eBioscience Cat. Numbers 11-0112 and 17-4801) cells in the brain were fluorescence-activated cell-sorted (FACS) directly into RLT-plus lysis buffer for microarray or 2% FBS in PBS for TEM or immunoblot lysates. For microarray RNA extraction was performed using a RNeasy micro kit (QIAGEN). […]

creatine kinase = settings: in vitro and in vivo; cited from earlier work
[5] = cited from earlier work
[6] = compared with phosphocreatine; cited from earlier work
Trem2−/− BMDMs [7] = experiment: ER stress in BMDM (LC3 and phospho-Akt immunoblots); assay type: cell-based, mouse; settings: Trem2−/− BMDMs compared with WT BMDMs, 10% LCCM
Protocol: as §1, §2

[8] = Trem2−/− 5XFAD mice, cyclocreatine in drinking water from 10 weeks to 8 months
[9] = Trem2−/− 5XFAD mice, cyclocreatine vs untreated
[10] = cyclocreatine treated Trem2−/− 5XFAD mice

## NC(=O)c1ccc[n+]([C@@H]2O[C@H](COP(=O)([O-])O)[C@@H](O)[C@H]2O)c1 [NMN, nicotinamide mononucleotide]
[1]
  autophagy: prevent
  cell death: prevent
  metabolic activity / metabolic capacity: rescue

## CO/C1=C\C(C)=C\[C@@H](C)[C@@H](O)[C@@H](C)C/C(C)=C/C=C/[C@H](OC)[C@@H]([C@@H](C)[C@@H](O)[C@H](C)[C@@]2(O)C[C@@H](O)[C@H](C)[C@@H](C(C)C)O2)OC1=O [bafilomycin, Bafilomycin A1]
Trem2−/− BMDMs [2]
  LC3II: greatly increased

## NC1=NCCN1CC(=O)O [cyclocreatine, 1-carboxymethyl-2-iminoimidazolidine]
Trem2-deficient BMDMs
  ECAR: improved
Trem2−/− BMDMs [3]
  autophagy (LC3 immunoblot): less autophagy
  mTOR signaling: increased mTOR signaling
Trem2−/− BMDM
  viability: increased
[1]
  autophagy: prevent
  cell death: prevent
  metabolic activity / metabolic capacity: rescue
Trem2−/− 5XFAD mice; 8 months of age
  engulfment of plaque particulates by microglia: did not moderate
Trem2−/− 5XFAD mice; [8]
  number of LC3 puncta/cell: significantly decreased
  percentage of LC3+ microglia: significantly decreased
  percentage of cleaved caspase-3+ microglia: significantly decreased
Trem2−/− 5XFAD mice; Trem2−/− 5XFAD mice, cyclocreatine in drinking water from 10 weeks to 8 months, vs untreated
  multivesicular/multilamellar structures in microglia (TEM): significantly fewer
Trem2−/− 5XFAD mice; [9]
  clustering of microglia around plaques: significantly increased
  number of microglia/high powered field (HPF) in plaque-bearing regions of the cortex: significantly increased
  plaque-associated neurite dystrophy: significantly reduced
Trem2−/− 5XFAD mice; cortex and hippocampus, 8 months of age
  plaque accumulation: did not moderate
Trem2−/− 5XFAD mice; [10]
  density of plaques (methoxy-X04 staining intensity): resembled that of plaques in 5XFAD mice
  plaque shape complexity: not significantly altered
Trem2−/− 5XFAD mice; cyclocreatine-treated Trem2−/− 5XFAD mice vs untreated Trem2−/− 5XFAD mice
  Spp1+ microglia: significantly more
5XFAD mice
  Spp1+ microglia: significantly more
[4]
  autophagy (LC3II/LC3I ratio): significantly limited
  microglial mTOR signaling: restored
Creatine kinase
  phosphorylation by creatine kinase in the forward reaction: phosphorylated efficiently
[5]; mouse brain in vivo
  accumulation in the brain: can accumulate and function as a phosphagen in the mouse brain
[5]; mouse, in vivo
  transport across membranes: passively transported across membranes

## phosphocreatine
[1]
  autophagy: prevent
  cell death: prevent
  metabolic activity / metabolic capacity: rescue

## phosphocyclocreatine [cyclocreatine phosphate]
[6]
  stability of the phosphorous-nitrogen (P N) bond: more stable than that of phosphocreatine

## tunicamycin
Trem2−/− BMDMs [7]
  Akt S473 phosphorylation: less
  LC3II/LC3I ratios: greater
